According to ChEMBL document CHEMBL1629615, “Intrapulmonary pharmacokinetics and pharmacodynamics of posaconazole at steady state in healthy subjects” (Antimicrob Agents Chemother, 2009):

Columns and labels:
[1] = Cmax in healthy human alveolar cell assessed as hydroxyitraconazole at 200 mg, po every 12 hrs for 5 days; type: ADME, organism-based, Lung, Pneumocyte; set-up: dose 200 mg, route oral; details: in vivo
[2] = AUC (0 to 24 hrs) in healthy human lung epithelial lining fluid assessed as hydroxyitraconazole at 200 mg, po every 12 hrs for 5 days; type: ADME, organism-based; set-up: dose 200 mg, time < 24 hr, route oral; details: in vivo
[3] = tested on: Plasma; assay: AUC (0 to 24 hrs) in healthy human plasma assessed as hydroxyitraconazole at 200 mg, po every 12 hrs for 5 days; type: ADME, organism-based; set-up: time < 24 hr, dose 200 mg, route oral; details: in vivo
[4] = tested on: Plasma; assay: Cmax in healthy human plasma assessed as hydroxyitraconazole at 200 mg, po every 12 hrs for 5 days; type: ADME, organism-based; set-up: dose 200 mg, route oral; details: in vivo
[5] = AUC (0 to 24 hrs) in healthy human alveolar cell assessed as hydroxyitraconazole at 200 mg, po every 12 hrs for 5 days; type: ADME, organism-based, Pneumocyte; set-up: time < 24 hr, dose 200 mg, route oral; details: in vivo
[6] = Cmax in healthy human lung epithelial lining fluid at 200 mg, po every 12 hrs for 5 days; type: ADME, organism-based; set-up: dose 200 mg, route oral

For `CC(O)C(C)n1ncn(-c2ccc(N3CCN(c4ccc(OCC5COC(Cn6cncn6)(c6ccc(Cl)cc6Cl)O5)cc4)CC3)cc2)c1=O` (stereo unspecified) [HYDROXYITRACONAZOLE], the Cmax [1] was 6600 ng/mL, the AUC [2] was 18900 ng·h/mL and the AUC [3] was 60200 ng·h/mL. For the same compound, the Cmax [4] was 1000 ng/mL, the AUC [5] was 134000 ng·h/mL and the Cmax [6] was 3300 ng/mL.
